The values below come from publication PMC10722540, “Red Wine Inspired Chemistry: Hemisynthesis of Procyanidin Analogs and Determination of Their Protein Precipitation Capacity, Octanol–Water Partition, and Stability in Phosphate-Buffered Saline” (Journal of Agricultural and Food Chemistry, 2023).

Data set [1] deals with T1, bovine serum albumin (BSA) (Bos taurus, UniProt P02769).
T1 construct: purchased Sigma-Aldrich (MO, USA)
Nature of the data set: UPLC–DAD analysis of supernatants from the PPC experiment (proportion of precipitated BSA). The class given is biochemical. The note with it: for proportion of BSA precipitated: highest tested concentration of 2.25 mM (molar ratio to BSA 23:1). The protocol:
(§1) PPC was measured by using the turbidimetric well-plate reader assay of Engström et al. (2019), with few modifications to the volumes of the reactants and to the number of replicates, for instance. The analyzes of the supernatants were done following Engström et al. (2022).[21] Briefly, 75 μL of BSA solution and 75 μL of the solutions of compounds 2–14 were pipetted to well plates, and the intensity of the forming haze was measured periodically at 420 nm using a well-plate reader. The PPC of the PC analogue 1 was not measured because it was not soluble in suitable solvents. The reactions were monitored for 30 min, and the highest intensities were recorded. A single background measurement was done at each concentration with all the components in the wells but the BSA. The reactions were done in triplicates (and in duplicates with PC C1), and the concentrations of the compounds 2–14 in the reaction mixtures were 0.25 0.65, 1.05, 1.45, 1.85, and 2.25 mM. The concentration of the BSA was kept constant at 0.1 mM. Therefore, the tested molar ratios to BSA were 2.5:1, 6.5:1, 10.5:1, 14.5:1, 18.5:1, and 22.5:1. After the 30 min, the supernatants and precipitates of the replicates were combined in a 1.5 mL Eppendorf tube and separated by centrifuging. The supernatants were then analyzed by UPLC–DAD using the shorter phenyl column (section 2.4) to quantify the leftover compounds 2–14 and BSA. Leftover BSA was quantified using a separately prepared linear calibration curve (1–125 μM), and the compounds 2–14 were quantified by analyzing the background solutions from the well-plate reader assay and constructing a calibration curve from these analyzes. BSA was quantified at 280 nm and compounds 2–14 at 280–320 nm. The wavelength of maximal UV absorption for compounds 2–14 could not be utilized in quantification because the diode array detector was saturated at the optimal wavelengths due to the high concentrations used in the well-plate reader assay. Therefore, off-optimal wavelengths were chosen for quantification separately for each compound 2–14 to reduce intensities and to obtain linear fits for calibration curves.

A short description of data set [2]: Octanol–water partition, shake-flask method. The class given is physicochemical. The note with it: 200 μM, n-octanol/water, 2 h mixing, SE in parentheses; for logP at 2 h: read-out: log P (log10KOW). The protocol: The shake-flask method was done using 2 mL Eppendorf tubes and three replicates. […] After mixing, aliquots of 500 μL were transferred to new Eppendorf tubes, and 500 μL of n-octanol was added that had been saturated with water. The solvent systems were mixed in a vortex mixer for 2 h, and then both the water and the n-octanol layers as well as the initial water solution were analyzed by UPLC–DAD using the shorter phenyl column (section 2.4). The chromatograms were integrated using TargetLynx software (version 4.2), and the octanol–water partition coefficient, log P, was calculated as the log10 of the ratio of area in n-octanol phase to the area in water phase. Recovery % was calculated by summing the areas in both phases and dividing the summation with the area measured from the initial water phase.

Data set [3] is described as follows: Stability in phosphate buffered saline. Type of data set: physicochemical. As to conditions: phosphate buffered saline, pH 7.4, PBS pH 7.4, 0.01 M phosphate, 150 μM, first-order kinetics, UV 280 nm; read-out: half-life (t1/2). The protocol: The stabilities of the compounds were measured in PBS, which was prepared from commercially available tablets that were dissolved in ultrapure water. The phosphate concentration was 0.01 M, the pH was 7.4, and the potassium and sodium chloride concentrations were 0.0027 and 0.137 M, respectively. […] The compounds were dissolved in 2 mL of the PBS solution in Eppendorf tubes, vortexed for approximately 15 min, and filtered through a 0.2 μm PTFE filter to a 2 mL UPLC vial. The solutions were analyzed with the UPLC-DAD-HESI-Orbitrap-MS instrument using the longer phenyl column (section 2.4), and repeated injections were done every 47.5 min for approximately 12 h. […] The UV chromatograms at 280 nm were integrated using the QuanBrowser module in Xcalibur software (version 4.1.31.9), and the main degradation products were identified in QualBrowser by their high-resolution mass spectra and UV spectra. With each compound, the measured areas were transformed to proportional areas by dividing all areas with the initial area in the first injection of the time series, and the data was further loge transformed and fitted with first-order linear regression curves. The regression curves were supplemented with 95% confidence intervals to visualize the uncertainty in the fitted curves. The half-lives were calculated from the slope (k) parameters of the linear regression model using the following equation: [drawing 1]

The target in data set [4] is T1, bovine serum albumin (BSA). The data set can be described thus: Protein precipitation capacity (PPC), turbidimetric well-plate reader assay with BSA, log-normal dose–response model. The class given is biochemical. The note with it: SE in parentheses; for ED90 (mM) / EC50: BSA 0.1 mM; for EC50: concentration giving 50% of maximal absorbance (420 nm haze), read-out: ED50 (the source's name); for slope: slope parameter of log-normal dose–response model. The protocol: as §1
All statistical analyzed were performed with R (version 4.2.2) in the integrated development environment Rstudio (version 2022.12.0.353).[23],[24] The PPC data was fitted with a dose–response model using the package drc.[25] Various models, e.g., logit and log-normal models, were compared using the mselect function, and the best fitting model was chosen based on the Akaike’s information criterion and residual error when comparing all models, and log-likelihood was used when comparing nested models. All compounds were assumed to have the same upper and lower asymptotes; the former was estimated from the experimental data, and the latter was fixed at zero.

T1 sequence (P02769 25-607): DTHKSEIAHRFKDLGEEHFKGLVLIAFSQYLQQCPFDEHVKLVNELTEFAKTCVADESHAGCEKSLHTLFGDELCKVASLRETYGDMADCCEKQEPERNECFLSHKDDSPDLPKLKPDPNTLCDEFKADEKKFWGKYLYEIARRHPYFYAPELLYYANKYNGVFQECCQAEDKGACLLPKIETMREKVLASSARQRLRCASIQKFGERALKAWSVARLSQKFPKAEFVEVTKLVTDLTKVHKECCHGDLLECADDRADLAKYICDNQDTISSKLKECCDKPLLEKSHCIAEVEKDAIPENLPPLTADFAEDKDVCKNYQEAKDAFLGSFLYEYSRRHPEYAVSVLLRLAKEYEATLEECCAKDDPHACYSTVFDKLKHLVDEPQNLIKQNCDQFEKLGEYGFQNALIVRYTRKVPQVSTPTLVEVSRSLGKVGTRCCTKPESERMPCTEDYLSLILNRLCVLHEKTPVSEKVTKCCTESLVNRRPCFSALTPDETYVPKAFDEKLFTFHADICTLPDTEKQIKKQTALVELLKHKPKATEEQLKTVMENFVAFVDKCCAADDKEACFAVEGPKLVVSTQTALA

As to `Oc1cc(O)c2c(c1)O[C@H](c1ccc(O)c(O)c1)[C@H](O)[C@H]2c1c(O)cc(O)c2c1O[C@H](c1ccc(O)c(O)c1)[C@H](O)[C@H]2c1c(O)cc(O)c2c1O[C@H](c1ccc(O)c(O)c1)[C@H](O)C2` [Compound 13, PC C1, reference compound], the “proportion of BSA precipitated” value in data set [1] is listed as “almost all”. Besides, in data set [2], the KOW was 0.07 (0.00) and the logP at 2 h is -1.17. Besides, the half-life at 150 μM in data set [3] came out at 30.9 h. In data set [4], the “ED90 (mM)” value is listed as 1.57 (0.06) mM, the EC50 stood at 770 µM and the slope is given as 1.79 (0.08).
Turning to `O=C(O[C@@H]1Cc2c(O)cc(O)cc2O[C@@H]1c1cc(O)c(O)c(O)c1)c1cc(O)c(O)c(O)c1` [Compound 14, Epigallocatechin-3-gallate, reference compound], the “proportion of BSA precipitated” value in data set [1] is given as “almost all”. Besides, in data set [2], the KOW is listed as 13.58 (0.06) and the logP at 2 h is 1.13. In data set [3], the half-life at 150 μM was 1.4 h. Besides, in data set [4], the “ED90 (mM)” value is 1.76 (0.06) mM, the EC50 was 890 µM and the slope is 1.88 (0.07).
With `Oc1cc(O)c2c(c1)O[C@H](c1ccc(O)c(O)c1)[C@H](O)[C@H]2c1c(O)cc(O)c2c1O[C@H](c1ccc(O)c(O)c1)[C@H](O)C2` [Compound 12, PC B2, reference compound], in data set [1], the “activity based on the proportions of precipitated BSA (in words)” value is “practically inactive”. Moreover, in data set [2], the KOW is recorded as 0.13 (0.00) and the logP at 2 h was -0.87. In addition, in data set [3], the half-life at 150 μM stood at 11.6 h.
